Among the data in ChEMBL document CHEMBL1150976, “The selectivity of protein kinase inhibitors: a further update” (Biochem J, 2007) are Activity values, retold here.

Assay [1] has as its target Proto-oncogene tyrosine-protein kinase Src (Gallus gallus) (UniProt P00523). As to the kind of experiment: Percentage Src activity remaining in the presence of 0.1uM inhibitor.
Assay [2] concerns the target Calcium/calmodulin-dependent protein kinase kinase 1 (Homo sapiens) (UniProt Q8N5S9). As to the kind of experiment: Percentage CaMKKalpha activity remaining in the presence of 0.1uM inhibitor.
Assay [3] has as its target Rho-associated protein kinase 2 (Homo sapiens) (UniProt O75116). As to the kind of experiment: Percentage ROCK2 activity remaining in the presence of 0.1uM inhibitor.
The target in assay [4] is T1, Serine/threonine-protein kinase 3 (Homo sapiens) (UniProt Q13188).
T1 sequence (whole entry): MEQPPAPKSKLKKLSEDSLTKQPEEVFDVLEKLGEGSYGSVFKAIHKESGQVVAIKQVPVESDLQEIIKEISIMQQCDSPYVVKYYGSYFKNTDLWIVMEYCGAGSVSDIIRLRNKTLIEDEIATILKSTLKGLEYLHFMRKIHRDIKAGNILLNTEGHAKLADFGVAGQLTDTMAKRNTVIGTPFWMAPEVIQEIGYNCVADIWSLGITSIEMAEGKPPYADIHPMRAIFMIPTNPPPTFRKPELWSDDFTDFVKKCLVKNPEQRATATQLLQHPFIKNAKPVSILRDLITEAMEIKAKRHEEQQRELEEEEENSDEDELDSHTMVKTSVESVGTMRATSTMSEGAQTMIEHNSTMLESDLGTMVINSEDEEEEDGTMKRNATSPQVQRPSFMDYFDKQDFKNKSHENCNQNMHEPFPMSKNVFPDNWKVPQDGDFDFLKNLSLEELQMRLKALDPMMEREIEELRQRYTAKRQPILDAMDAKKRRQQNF
As to the kind of experiment: Percentage MST2 activity remaining in the presence of 0.1uM inhibitor.

Assay [5] has as its target Serine/threonine-protein kinase Chk2 (Homo sapiens) (UniProt O96017). As to the kind of experiment: Percentage CHK2 activity remaining in the presence of 0.1uM inhibitor.
Assay [6] concerns the target Mitogen-activated protein kinase 8 (Homo sapiens, UniProt P45983). Description: Percentage JNK1 activity remaining in the presence of 0.1uM inhibitor.
Assay [7] deals with Maternal embryonic leucine zipper kinase (Homo sapiens) (UniProt Q14680). Description: Percentage MELK activity remaining in the presence of 0.1uM inhibitor.
Maternal embryonic leucine zipper kinase (Homo sapiens), sequence (Q14680 whole entry, looked up): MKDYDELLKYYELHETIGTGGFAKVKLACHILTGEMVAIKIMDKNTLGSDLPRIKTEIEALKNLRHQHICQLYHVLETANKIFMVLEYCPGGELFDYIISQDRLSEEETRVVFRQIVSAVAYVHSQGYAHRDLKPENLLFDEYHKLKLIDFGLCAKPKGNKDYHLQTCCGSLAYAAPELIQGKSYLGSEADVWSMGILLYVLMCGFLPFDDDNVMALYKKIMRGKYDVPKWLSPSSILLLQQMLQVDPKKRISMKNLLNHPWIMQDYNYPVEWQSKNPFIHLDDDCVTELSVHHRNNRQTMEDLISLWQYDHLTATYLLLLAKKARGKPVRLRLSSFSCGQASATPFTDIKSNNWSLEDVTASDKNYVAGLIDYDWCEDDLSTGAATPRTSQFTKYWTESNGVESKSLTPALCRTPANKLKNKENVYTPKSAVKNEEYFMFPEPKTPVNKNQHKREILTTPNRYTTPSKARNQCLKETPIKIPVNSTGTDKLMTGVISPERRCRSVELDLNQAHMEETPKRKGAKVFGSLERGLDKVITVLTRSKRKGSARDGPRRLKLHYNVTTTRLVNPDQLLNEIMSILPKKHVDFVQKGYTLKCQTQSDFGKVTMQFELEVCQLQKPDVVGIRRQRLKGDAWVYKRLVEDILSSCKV
Assay [8] concerns the target Calcium/calmodulin-dependent protein kinase kinase 2 (Homo sapiens) (UniProt Q96RR4). As to the kind of experiment: Percentage CaMKKbeta activity remaining in the presence of 0.1uM inhibitor.
Assay [9] deals with Mitogen-activated protein kinase 1 (Homo sapiens) (UniProt P28482). Description: Percentage ERK2 activity remaining in the presence of 0.1uM inhibitor.
Mitogen-activated protein kinase 1 (Homo sapiens), sequence (P28482 whole entry): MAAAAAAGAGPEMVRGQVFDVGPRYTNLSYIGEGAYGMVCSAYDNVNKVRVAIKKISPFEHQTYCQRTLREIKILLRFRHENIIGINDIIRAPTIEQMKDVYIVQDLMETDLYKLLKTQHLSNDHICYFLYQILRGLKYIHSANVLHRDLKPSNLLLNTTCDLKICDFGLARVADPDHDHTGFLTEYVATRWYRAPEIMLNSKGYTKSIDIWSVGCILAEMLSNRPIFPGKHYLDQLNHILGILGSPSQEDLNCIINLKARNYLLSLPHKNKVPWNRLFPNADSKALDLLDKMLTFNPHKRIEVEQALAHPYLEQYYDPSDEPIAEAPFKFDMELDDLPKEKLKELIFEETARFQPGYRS
Assay [10] deals with MAP/microtubule affinity-regulating kinase 3 (Homo sapiens) (UniProt P27448). Description: Percentage MARK3 activity remaining in the presence of 0.1uM inhibitor.
MAP/microtubule affinity-regulating kinase 3 (Homo sapiens), sequence (P27448 whole entry, looked up): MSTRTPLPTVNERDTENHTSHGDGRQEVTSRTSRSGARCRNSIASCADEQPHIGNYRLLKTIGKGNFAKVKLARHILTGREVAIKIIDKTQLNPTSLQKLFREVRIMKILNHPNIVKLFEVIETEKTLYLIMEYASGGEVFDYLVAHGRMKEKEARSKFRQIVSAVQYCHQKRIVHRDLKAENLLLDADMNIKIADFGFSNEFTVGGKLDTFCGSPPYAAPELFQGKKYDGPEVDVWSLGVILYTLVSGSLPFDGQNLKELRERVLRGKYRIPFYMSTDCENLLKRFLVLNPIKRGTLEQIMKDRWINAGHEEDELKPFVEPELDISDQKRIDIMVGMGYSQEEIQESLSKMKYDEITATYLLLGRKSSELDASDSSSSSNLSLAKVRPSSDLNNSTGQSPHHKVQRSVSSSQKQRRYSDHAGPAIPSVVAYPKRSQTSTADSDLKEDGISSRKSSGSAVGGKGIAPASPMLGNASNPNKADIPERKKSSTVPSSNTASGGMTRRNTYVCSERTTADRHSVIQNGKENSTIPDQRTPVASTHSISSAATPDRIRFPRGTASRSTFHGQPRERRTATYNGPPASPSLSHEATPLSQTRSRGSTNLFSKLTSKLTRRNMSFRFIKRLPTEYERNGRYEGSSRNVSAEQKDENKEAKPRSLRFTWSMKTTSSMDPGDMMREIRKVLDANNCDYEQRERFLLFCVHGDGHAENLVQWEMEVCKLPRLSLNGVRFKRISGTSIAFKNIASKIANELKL
Assay [11] concerns the target Dual specificity tyrosine-phosphorylation-regulated kinase 1A (Homo sapiens) (UniProt Q13627). As to the kind of experiment: Percentage DYRK1A activity remaining in the presence of 0.1uM inhibitor.
Assay [12] concerns the target Serine/threonine-protein kinase PAK 6 (Homo sapiens) (UniProt Q9NQU5). Description: Percentage PAK6 activity remaining in the presence of 0.1uM inhibitor.
Assay [13] deals with Serine/threonine-protein kinase PAK 5 (Homo sapiens) (UniProt Q9P286). As to the kind of experiment: Percentage PAK5 activity remaining in the presence of 0.1uM inhibitor.
Serine/threonine-protein kinase PAK 5 (Homo sapiens), sequence (Q9P286 whole entry, looked up): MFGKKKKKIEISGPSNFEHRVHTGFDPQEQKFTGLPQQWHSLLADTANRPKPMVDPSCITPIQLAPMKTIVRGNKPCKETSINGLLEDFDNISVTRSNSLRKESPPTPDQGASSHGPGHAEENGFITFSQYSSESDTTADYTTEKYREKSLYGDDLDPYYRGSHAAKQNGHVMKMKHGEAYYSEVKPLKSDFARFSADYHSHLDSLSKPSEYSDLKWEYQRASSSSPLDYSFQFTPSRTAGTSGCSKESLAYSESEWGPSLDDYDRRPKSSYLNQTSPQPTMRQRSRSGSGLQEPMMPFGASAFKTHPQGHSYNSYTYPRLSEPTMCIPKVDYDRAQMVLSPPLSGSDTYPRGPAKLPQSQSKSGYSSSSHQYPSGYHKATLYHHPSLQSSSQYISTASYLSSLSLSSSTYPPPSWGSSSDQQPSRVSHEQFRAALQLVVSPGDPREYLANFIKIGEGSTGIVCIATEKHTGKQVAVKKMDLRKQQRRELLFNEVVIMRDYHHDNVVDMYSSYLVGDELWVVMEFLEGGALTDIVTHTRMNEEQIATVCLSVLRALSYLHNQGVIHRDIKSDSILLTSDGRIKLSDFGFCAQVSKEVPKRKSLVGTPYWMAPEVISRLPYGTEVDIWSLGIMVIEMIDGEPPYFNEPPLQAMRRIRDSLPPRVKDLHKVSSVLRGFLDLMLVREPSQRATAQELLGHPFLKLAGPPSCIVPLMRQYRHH
Assay [14] concerns the target T2, Dual specificity tyrosine-phosphorylation-regulated kinase 3 (Homo sapiens) (UniProt O43781).
T2 sequence (whole entry): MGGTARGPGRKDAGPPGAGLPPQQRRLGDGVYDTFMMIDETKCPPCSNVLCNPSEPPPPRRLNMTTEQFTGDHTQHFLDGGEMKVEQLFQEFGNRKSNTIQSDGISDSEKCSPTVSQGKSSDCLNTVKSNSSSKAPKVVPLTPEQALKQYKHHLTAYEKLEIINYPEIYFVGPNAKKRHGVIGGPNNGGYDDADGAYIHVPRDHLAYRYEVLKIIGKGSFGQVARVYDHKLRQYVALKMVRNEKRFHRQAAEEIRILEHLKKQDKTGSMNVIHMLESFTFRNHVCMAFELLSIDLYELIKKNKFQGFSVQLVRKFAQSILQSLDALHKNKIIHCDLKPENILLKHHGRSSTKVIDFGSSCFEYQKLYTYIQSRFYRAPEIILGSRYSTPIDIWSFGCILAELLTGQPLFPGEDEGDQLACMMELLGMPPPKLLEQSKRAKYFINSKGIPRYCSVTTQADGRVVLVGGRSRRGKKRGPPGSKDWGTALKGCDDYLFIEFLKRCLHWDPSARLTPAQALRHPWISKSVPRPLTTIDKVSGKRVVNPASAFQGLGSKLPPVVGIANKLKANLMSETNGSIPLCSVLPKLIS
As to the kind of experiment: Percentage DYRK3 activity remaining in the presence of 0.1uM inhibitor.

In assay [15] the target is T3, Mitogen-activated protein kinase 15 (Homo sapiens) (UniProt Q8TD08).
T3 sequence (whole entry): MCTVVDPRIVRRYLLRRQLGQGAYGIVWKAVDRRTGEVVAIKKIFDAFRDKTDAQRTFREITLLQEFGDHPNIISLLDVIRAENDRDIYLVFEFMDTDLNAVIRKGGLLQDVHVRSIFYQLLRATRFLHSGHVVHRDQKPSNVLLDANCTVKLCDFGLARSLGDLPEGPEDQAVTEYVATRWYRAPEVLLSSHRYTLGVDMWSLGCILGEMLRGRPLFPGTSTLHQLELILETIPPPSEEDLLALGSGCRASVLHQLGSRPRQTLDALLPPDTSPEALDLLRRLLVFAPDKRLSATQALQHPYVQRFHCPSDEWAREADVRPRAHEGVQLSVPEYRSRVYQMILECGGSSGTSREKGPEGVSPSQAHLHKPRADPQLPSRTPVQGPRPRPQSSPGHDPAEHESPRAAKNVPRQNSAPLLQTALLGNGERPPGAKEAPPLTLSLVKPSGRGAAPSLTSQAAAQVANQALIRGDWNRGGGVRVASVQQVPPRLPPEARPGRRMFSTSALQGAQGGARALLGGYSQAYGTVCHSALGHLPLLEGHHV
Description: Percentage ERK8 activity remaining in the presence of 0.1uM inhibitor.

For assay [16], the target named is MAP kinase-activated protein kinase 3 (Homo sapiens) (UniProt Q16644). Description: Percentage MAPKAPK3 activity remaining in the presence of 0.1uM inhibitor.
MAP kinase-activated protein kinase 3 (Homo sapiens), sequence (Q16644 whole entry, looked up): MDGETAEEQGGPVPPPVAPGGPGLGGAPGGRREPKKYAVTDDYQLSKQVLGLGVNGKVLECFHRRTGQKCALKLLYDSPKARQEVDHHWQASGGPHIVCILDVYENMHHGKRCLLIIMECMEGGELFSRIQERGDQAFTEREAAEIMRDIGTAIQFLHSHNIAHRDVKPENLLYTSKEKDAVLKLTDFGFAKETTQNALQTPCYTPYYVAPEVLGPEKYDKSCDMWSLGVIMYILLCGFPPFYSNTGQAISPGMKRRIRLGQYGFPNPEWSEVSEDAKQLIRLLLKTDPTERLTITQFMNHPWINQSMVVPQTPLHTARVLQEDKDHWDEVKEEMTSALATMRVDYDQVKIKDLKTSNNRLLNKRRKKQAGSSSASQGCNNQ
In assay [17] the target is Serine/threonine-protein kinase PAK 4 (Homo sapiens, UniProt O96013). As to the kind of experiment: Percentage PAK4 activity remaining in the presence of 0.1uM inhibitor.
Serine/threonine-protein kinase PAK 4, sequence (O96013 whole entry, looked up): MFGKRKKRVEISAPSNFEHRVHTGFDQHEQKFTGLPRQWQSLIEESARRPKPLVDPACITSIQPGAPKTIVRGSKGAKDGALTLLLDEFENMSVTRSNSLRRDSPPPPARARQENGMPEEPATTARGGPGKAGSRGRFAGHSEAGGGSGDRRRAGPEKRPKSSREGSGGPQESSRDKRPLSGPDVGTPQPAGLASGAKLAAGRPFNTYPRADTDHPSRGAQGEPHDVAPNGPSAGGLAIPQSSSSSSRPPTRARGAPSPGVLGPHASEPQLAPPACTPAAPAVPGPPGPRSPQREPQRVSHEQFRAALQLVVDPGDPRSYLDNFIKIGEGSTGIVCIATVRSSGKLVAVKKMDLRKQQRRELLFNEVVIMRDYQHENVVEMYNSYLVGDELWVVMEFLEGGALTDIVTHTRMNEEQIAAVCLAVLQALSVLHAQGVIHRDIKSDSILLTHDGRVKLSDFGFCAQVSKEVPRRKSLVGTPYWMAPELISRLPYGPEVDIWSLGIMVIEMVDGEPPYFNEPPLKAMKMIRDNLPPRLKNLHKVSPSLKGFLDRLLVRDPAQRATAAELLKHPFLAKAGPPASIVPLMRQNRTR

Mitogen-activated protein kinase 8, sequence (P45983 whole entry): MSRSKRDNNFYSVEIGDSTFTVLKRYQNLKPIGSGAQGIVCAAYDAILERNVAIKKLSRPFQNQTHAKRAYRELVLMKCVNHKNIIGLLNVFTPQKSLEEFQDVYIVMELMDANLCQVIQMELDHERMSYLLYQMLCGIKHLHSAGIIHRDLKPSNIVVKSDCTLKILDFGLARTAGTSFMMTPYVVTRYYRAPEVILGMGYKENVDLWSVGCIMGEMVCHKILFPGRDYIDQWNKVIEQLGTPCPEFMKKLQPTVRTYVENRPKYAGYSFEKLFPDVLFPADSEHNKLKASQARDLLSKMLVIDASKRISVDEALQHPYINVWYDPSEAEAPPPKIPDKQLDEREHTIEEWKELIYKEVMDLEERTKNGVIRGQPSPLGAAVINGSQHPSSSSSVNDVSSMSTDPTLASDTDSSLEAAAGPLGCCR
Serine/threonine-protein kinase Chk2 (Homo sapiens), sequence (O96017 whole entry): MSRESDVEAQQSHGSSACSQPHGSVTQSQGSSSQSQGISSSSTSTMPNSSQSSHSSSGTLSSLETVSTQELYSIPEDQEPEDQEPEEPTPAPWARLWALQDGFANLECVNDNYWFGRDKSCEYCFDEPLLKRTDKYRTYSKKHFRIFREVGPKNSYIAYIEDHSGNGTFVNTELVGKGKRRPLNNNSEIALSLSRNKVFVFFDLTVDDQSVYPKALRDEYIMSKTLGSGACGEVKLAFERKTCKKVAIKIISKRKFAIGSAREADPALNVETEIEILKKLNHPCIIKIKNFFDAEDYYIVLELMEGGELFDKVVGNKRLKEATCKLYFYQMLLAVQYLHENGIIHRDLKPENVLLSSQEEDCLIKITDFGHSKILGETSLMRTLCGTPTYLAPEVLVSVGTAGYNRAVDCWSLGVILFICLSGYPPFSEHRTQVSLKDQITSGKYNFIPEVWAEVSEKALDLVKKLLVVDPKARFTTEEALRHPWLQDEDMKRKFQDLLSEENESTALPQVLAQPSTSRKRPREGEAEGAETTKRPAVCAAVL
Calcium/calmodulin-dependent protein kinase kinase 1 (Homo sapiens), sequence (Q8N5S9 whole entry, looked up): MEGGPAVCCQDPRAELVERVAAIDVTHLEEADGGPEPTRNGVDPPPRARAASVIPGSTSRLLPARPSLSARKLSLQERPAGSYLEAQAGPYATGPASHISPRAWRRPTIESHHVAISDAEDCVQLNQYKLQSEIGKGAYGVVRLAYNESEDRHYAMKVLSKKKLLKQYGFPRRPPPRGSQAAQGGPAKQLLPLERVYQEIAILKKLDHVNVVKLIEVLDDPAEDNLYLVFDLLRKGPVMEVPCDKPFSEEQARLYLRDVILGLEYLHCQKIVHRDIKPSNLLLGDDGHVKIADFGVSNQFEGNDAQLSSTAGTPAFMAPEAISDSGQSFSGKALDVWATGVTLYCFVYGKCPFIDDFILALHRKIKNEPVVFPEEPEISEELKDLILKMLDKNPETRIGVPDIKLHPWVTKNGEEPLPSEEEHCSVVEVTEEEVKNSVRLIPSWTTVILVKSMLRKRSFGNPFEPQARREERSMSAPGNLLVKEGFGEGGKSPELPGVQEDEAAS

With `CC(C)[C@H](CO)Nc1nc(Nc2cccc(Cl)c2)c2ncn(C(C)C)c2n1` [PURVALANOLA], the Activity in assay [1] (filed as antagonist) is 14%; in assay [2] it was 76%; in [3] it was 93%; in [4], 60%; in [5], 94%; in [6] it was 100%. Besides, the Activity in assay [7] came out at 72%; in assay [8], 60%; in assay [9], 79%; in assay [10], 89%; in assay [11], 88%; in assay [12] it was 67%. For the same molecule, the Activity is 53% in assay [13]; 89% in assay [14]; 70% in [15]; 88% in assay [16]; 43% in assay [17] (filed as antagonist).
`Cn1cc(C2=C(c3cn(CCCSC(=N)N)c4ccccc34)C(=O)NC2=O)c2ccccc21`: the Activity is 91% in assay [1]; 104% in assay [2]; 88% in [3]; 80% in assay [4]; 99% in [5]; 93% in [6]. Also, the Activity in [7] was 61%; in assay [8] it was 65%; in assay [9] it was 92%; in assay [10], 77%; in assay [11] (filed as antagonist), 31%; in [12] it was 76%. In addition, the Activity amounted to 79% in assay [13]; 55% in [14]; 51% in [15]; 90% in assay [16]; 75% in assay [17].
Take `O=C(NCCCNc1nc(Nc2cccc(NC(=O)N3CCCC3)c2)ncc1I)c1cccs1`: the Activity was 77% in assay [1]; 69% in assay [2]; 28% in assay [3] (filed as antagonist); 92% in assay [4]; 46% in assay [5] (filed as antagonist); 85% in assay [6]. The Activity is 32% in assay [7] (filed as antagonist); 30% in [8] (filed as antagonist); 71% in [9]; 3% in [10] (filed as antagonist); 83% in assay [11]; 85% in assay [12]. Moreover, the Activity in assay [13] is 81%; in assay [14], 65%; in assay [15] (filed as antagonist), 7%; in [16] it was 102%; in [17], 71%.
`Cn1c2ccccc2c2c3c(c4c5ccccc5n(CCC#N)c4c21)CNC3=O`: the Activity was 65% in assay [1]; 27% in [2] (filed as antagonist); 3% in [4] (filed as antagonist); 43% in assay [5] (filed as antagonist); 69% in [6]; 15% in assay [7] (filed as antagonist). The Activity was 11% in assay [8] (filed as antagonist); 41% in assay [9] (filed as antagonist); 12% in [10] (filed as antagonist); 30% in assay [11] (filed as antagonist); 6% in assay [12] (filed as antagonist); 6% in [13] (filed as antagonist). For the same molecule, the Activity in [14] (filed as antagonist) was 28%; in [15] (filed as antagonist), 38%; in assay [16], 95%; in assay [17] (filed as antagonist), 5%.
On to `CN(C)C[C@@H]1CCn2cc(c3ccccc32)C2=C(C(=O)NC2=O)c2cn(c3ccccc23)CCO1`, for which the Activity was 97% in assay [1]; 97% in assay [2]; 94% in [3]; 37% in assay [4] (filed as antagonist); 92% in [5]; 87% in assay [6]. Also, the Activity in assay [8] was 53%; in [9] it was 94%; in [10], 73%; in assay [11] it was 74%; in assay [12] it was 81%; in assay [13], 79%. The Activity came to 64% in assay [14], 92% in assay [15], 90% in [16] and 75% in [17].
Consider `CC(C)CCN1c2nc(Nc3cc(F)c(O)c(F)c3)ncc2N(C)C(=O)C1C` (stereo unspecified), for which the Activity in assay [1] was 96%; in assay [2], 92%; in [3], 84%; in assay [4] (filed as antagonist), 41%; in assay [5], 96%; in assay [6] it was 88%. Also, the Activity in assay [7] (filed as antagonist) is 40%; in assay [8] it was 73%; in assay [9], 85%; in assay [10], 79%; in [11], 96%; in [12] it was 102%. The Activity in assay [13] turned out to be 90%; in assay [14], 91%; in [15], 82%; in assay [16] it was 108%; in assay [17], 81%.
Regarding `Cc1n[nH]c2ccc(-c3cncc(OC[C@@H](N)Cc4c[nH]c5ccccc45)c3)cc12`, the Activity in [1] is 86%; in [2] it was 117%; in assay [3] (filed as antagonist), 8%; in assay [4] (filed as antagonist), 29%; in [5] it was 95%; in [6] it was 90%. Also, the Activity is 63% in [7]; 64% in [9]; 83% in assay [10]; 7% in assay [11] (filed as antagonist); 87% in assay [12]; 96% in assay [13]. In addition, the Activity in [14] (filed as antagonist) was 8%; in [15] (filed as antagonist) it was 28%; in [16], 96%; in [17], 90%.
